“Also recorded” adds a separate entry of the source.
What was measured:
PBMCs [1] = assay: Protein microarrays (human cytokine micro arrays 6.1 and 7.1) of secreted factors in culture supernatant; type: cell-based; conditions: for amount of EGF in the supernatant / amount of Eotaxin-2 in the supernatant / amount of GRO in the supernatant / amount of I-309 in the supernatant / amount of IFNγ in the supernatant / amount of IL-1ra in the supernatant / amount of IL-1α in the supernatant / amount of IL-1β in the supernatant / amount of IL-3 in the supernatant / amount of IL-6 in the supernatant / amount of IL-8 in the supernatant / amount of MCP-4 in the supernatant / amount of NAP-2 in the supernatant / amount of PARC in the supernatant / amount of RANTES in the supernatant / amount of SDF-1 in the supernatant / amount of TARC in the supernatant / amount of TGFβ3 in the supernatant / amount of soluble IL-6 Receptor in the supernatant / amount of soluble TNF-Receptor II in the supernatant: FIGS. 3b and 3c
Method: All reagents were from Raybiotech (Hilden, Germany). 2 ml supernatant from cultures with 5×10^6 cells/ml was mixed with blocking buffer (BB) and pipetted to blocked human cytokine micro arrays 6.1 and 7.1. After overnight incubation, the membranes were washed three times with wash buffer I and two times with wash buffer II. Anti-cytokine antibodies were added in 2 ml BB. After incubation and wash as described above, 2 ml streptavidin-HRP was added. Again after incubation and wash as described above, detection solution was added and exposure for 18 h to X-ray films were performed.

TCR [2] = assay: TCR expression in PBMCs from patients recovering from T-cell toxic chemotherapy (fludarabine); type: cell-based, human
Method: (§1) CD3 kappa or the control peptide was solubilized in RPMI with 1% human serum albumin (HSA, Calbiochem, Schwalbach, Germany) and 100 μM β-mercaptoethanol (β-ME, Invitrogene) at 10 mg/ml. PBMCs were incubated at 10^6 cells/ml with either peptide in the same medium and stained after on wash step with PBS with various antibodies (BD).
CD3 zeta is synthesized at about 10% of the rate as the other CD3-complex proteins being the limiting component for a correct assembly of the CD3/TCR complex. A maximal upregulation of CD3 zeta can therefore result in a 10-fold upregulation of the TCR. The higher capability of CD3 kappa to upregulate the surface TCR expression might be explained with a reduced need of some of the CD3-complex components.

PBMCs [3] = assay: Functional CD3 kappa assay: cell surface markers and cytokine/chemokine receptors on PBMCs; type: cell-based, human; conditions: after six days; for expression of CD25 / expression of CD116: FIGS. 4a/4b
Method: (§2) Heparinized full blood was layered on room-temperature LSM (density: 1.077 g/ml, Cambrex, Verviers, Belgium). After centrifugation at 400 g at 20° C. for 30 minutes, the interphase cells were isolated. The cells were washed twice with 50 ml PBS containing 2 mM EDTA and centrifuged at 300 g for 10 minutes at 20° C. The cell-pellet was resuspended in RPMI supplemented with 10% autologous serum, Pen/Strep, Gentamycin, Pyruvate, Hepes-buffer and L-Glutamine (Cambrex).
as §1

TCR [4] = assay: Functional CD3 kappa assay: TCR expression on CD4+ PBMCs from healthy donors (antibody staining); type: cell-based, human; conditions: for TCR-expression: CD4+ cells from three healthy donors, FIG. 2A
Method: as §2, §1
We synthesized the resulting 42 amino acids polypeptide without the signal sequence resulting in the CD3 kappa peptide having the amino acid sequence according to SEQ ID NO:4. All following experiments were performed with freshly isolated PBMCs from healthy donors in the presence of the 42-mer CD3-kappa or of a control peptide (consisting of the same amino acid composition and length but with a random sequence). […] The control peptide had no effect on TCR expression. Concentrations up to 1 mg/ml CD3-kappa induced a maximal response after 24 h resulting in a six fold upregulation of the TCR.

CD4 = assay: Functional CD3 kappa assay: CD4 expression on PBMCs from healthy donors; type: cell-based, human; conditions: over 6 d, FIG. 2B
Method: as §2, §1
The TCR-expression level was stabilized after treatment with CD3-kappa in a majority of the CD4 cells, while untreated cells quickly converted to a low TCR expression state. Only at day 6 did the CD3-kappa treated cells show a decline in TCR expression.

[5] = peripheral blood mononuclear cells, in vitro

In the case of “SQVSPFKIPIEELEDRVFVNCNTSIYRASSLSN CRHTSSVEE (SQVSPFKIPIEELEDRVFVNCNTSIYRASSLSNCRHTSSVEE) [CD3 kappa, 42 amino acid long synthesized peptide, splice variant of CD3 delta without the signal peptide]”, the “amount of EGF in the supernatant” value (PBMCs [1]) is reported as “increased release”, the “amount of Eotaxin-2 in the supernatant” value (PBMCs [1]) is reported as “increased release” and the “amount of GRO in the supernatant” value (PBMCs [1]) is reported as “decreased release”. For the same sequence, the “amount of I-309 in the supernatant” value (PBMCs [1]) was “increased release”, the “amount of IFNγ in the supernatant” value (PBMCs [1]) was “increased release” and the “amount of IL-1ra in the supernatant” value (PBMCs [1]) was “decreased release”. For the same sequence, the “amount of IL-1α in the supernatant” value (PBMCs [1]) was “increased release”, the “amount of IL-1β in the supernatant” value (PBMCs [1]) was “increased release” and the “amount of IL-3 in the supernatant” value (PBMCs [1]) was “increased release”. For the same sequence, the “amount of IL-6 in the supernatant” value (PBMCs [1]) was “increased release”, the “amount of IL-8 in the supernatant” value (PBMCs [1]) was “decreased release” and the “amount of MCP-4 in the supernatant” value (PBMCs [1]) was “decreased release”. For the same sequence, the “amount of NAP-2 in the supernatant” value (PBMCs [1]) was “increased release”, the “amount of PARC in the supernatant” value (PBMCs [1]) was “increased release” and the “amount of RANTES in the supernatant” value (PBMCs [1]) was “decreased release”. For the same sequence, the “amount of SDF-1 in the supernatant” value (PBMCs [1]) was “decreased release”, the “amount of TARC in the supernatant” value (PBMCs [1]) was “decreased release” and the “amount of TGFβ3 in the supernatant” value (PBMCs [1]) was “increased release”. For the same sequence, the “amount of soluble IL-6 Receptor in the supernatant” value (PBMCs [1]) was “decreased release”, the “amount of soluble TNF-Receptor II in the supernatant” value (PBMCs [1]) was “decreased release” and the “amount of EGF in the supernatant” value (PBMCs [1]; listed as CD3-kappa) was “increased”. For the same sequence, the “amount of Eotaxin-2 in the supernatant” value (PBMCs [1]; listed as CD3-kappa) was “increased”, the “amount of GRO in the supernatant” value (PBMCs [1]; listed as CD3-kappa) was “decreased” and the “amount of I-309 in the supernatant” value (PBMCs [1]; listed as CD3-kappa) was “increased”. For the same sequence, the “amount of IFNγ in the supernatant” value (PBMCs [1]; listed as CD3-kappa) was “increased”, the “amount of IL-1ra in the supernatant” value (PBMCs [1]; listed as CD3-kappa) was “decreased” and the “amount of IL-1α in the supernatant” value (PBMCs [1]; listed as CD3-kappa) was “increased”. The “amount of IL-1β in the supernatant” value (PBMCs [1]; listed as CD3-kappa) was “increased”, the “amount of IL-3 in the supernatant” value (PBMCs [1]; listed as CD3-kappa) was “increased” and the “amount of IL-6 in the supernatant” value (PBMCs [1]; listed as CD3-kappa) was “increased”. For the same sequence, the “amount of IL-8 in the supernatant” value (PBMCs [1]; listed as CD3-kappa) was “decreased”, the “amount of MCP-4 in the supernatant” value (PBMCs [1]; listed as CD3-kappa) was “decreased” and the “amount of NAP-2 in the supernatant” value (PBMCs [1]; listed as CD3-kappa) was “increased”. The “amount of PARC in the supernatant” value (PBMCs [1]; listed as CD3-kappa) was “increased”, the “amount of RANTES in the supernatant” value (PBMCs [1]; listed as CD3-kappa) was “decreased” and the “amount of SDF-1 in the supernatant” value (PBMCs [1]; listed as CD3-kappa) was “decreased”. For the same sequence, the “amount of TARC in the supernatant” value (PBMCs [1]; listed as CD3-kappa) was “decreased”, the “amount of TGFβ3 in the supernatant” value (PBMCs [1]; listed as CD3-kappa) was “increased” and the “amount of soluble IL-6 Receptor in the supernatant” value (PBMCs [1]; listed as CD3-kappa) was “decreased”. The “amount of soluble TNF-Receptor II in the supernatant” value (PBMCs [1]; listed as CD3-kappa) was “decreased”, the “duration of the changes in secretion” value (PBMCs [1]; [5]) was “up to eight” and the “time after addition at which the changes in secretion occur” value (PBMCs [1]; [5]) was “about 24 h”. The “decreased TCR expression of patients after treatment” value (TCR [2]; PBMCs / T lymphocytes from patients with decreased TCR expression, compared with healthy individuals) was “restored to normal levels; also recorded: increased in a statistically significant manner”, the TCR upregulation (TCR [2]; PBMCs from patients recovering from fludarabine treatment, after 48 h treatment, FIG. 5) was 25 fold and the “expression of CD2” value (PBMCs [3]; FIG. 3a) was “up-regulation”. For the same sequence, the “expression of CD58” value (PBMCs [3]; FIG. 3a) was “down regulated”, the “expression of CD127” value (PBMCs [3]; FIG. 3a) was “up-regulation” and the “expression of CD2” value (PBMCs [3]; FIG. 3a, listed as CD3-kappa) was “increase”. The “expression of CD127” value (PBMCs [3]; FIG. 3a, listed as CD3-kappa) was “increase”, the “expression of CD38” value (PBMCs [3]; FIG. 4a) was “not changed” and the “expression of CD44” value (PBMCs [3]; FIG. 4a) was “not changed”. The “expression of CD45RA” value (PBMCs [3]; FIG. 4a) was “not changed”, the “expression of CD45RO” value (PBMCs [3]; FIG. 4a) was “not changed” and the “expression of CD62L” value (PBMCs [3]; FIG. 4a) was “not changed”. The “expression of CD95” value (PBMCs [3]; FIG. 4a) was “not changed”, the “expression of HLA-ABC” value (PBMCs [3]; FIG. 4a) was “not changed” and the “expression of HLA-DR, DP, DQ” value (PBMCs [3]; FIG. 4a) was “not changed”. The “expression of LAIR” value (PBMCs [3]; FIG. 4a) was “not changed”, the non-T-cell markers (PBMCs [3]; FIG. 4a) was “not affected” and the “expression of CCR3” value (PBMCs [3]; FIG. 4b) was “up-regulation”. The “expression of CCR9” value (PBMCs [3]; FIG. 4b) was “up-regulation”, the “expression of CXCR1” value (PBMCs [3]; FIG. 4b) was “up-regulation” and the “expression of CXCR3” value (PBMCs [3]; FIG. 4b) was “slight upregulation”. The “expression of CXCR4” value (PBMCs [3]; FIG. 4b) was “slight upregulation”, the “expression of CCR3” value (PBMCs [3]; FIG. 4b, listed as CD3-kappa) was “increase” and the “expression of CCR9” value (PBMCs [3]; FIG. 4b, listed as CD3-kappa) was “increase”. For the same sequence, the “expression of CXCR1” value (PBMCs [3]; FIG. 4b, listed as CD3-kappa) was “increase”, the “expression of CD25” value (PBMCs [3]) was “up-regulation” and the “expression of CD116” value (PBMCs [3]) was “up-regulation”. The “expression of CD25” value (PBMCs [3]; listed as CD3-kappa) was “increase”, the “expression of CD116” value (PBMCs [3]; listed as CD3-kappa) was “increase” and the “concentration giving detectable TCR-upregulation” value (TCR [4]; CD4+ cells from healthy donors, 24 h) was ≥ 0.1 mg/mL. For the same sequence, the TCR-expression (TCR [4]; after 24 h) was “concentration dependent increase”, the “TCR expression over time” value (TCR [4]; PBMCs / CD4 cells, over the next 6 days, FIG. 2B) was “remarkable and sustained increase; also recorded: stabilized” and the “upregulation of the TCR (maximal response)” value (TCR [4]; PBMCs from healthy donors, up to 1 mg/ml, after 24 h) was “six”. For the same sequence, the “influence of stimulation with PMA and ionomycin on the TCR increase” value (TCR [4]; cells stimulated with PMA and ionomycin) was “did not affect this finding”, the “TCR expression at day 6” value (TCR [4]; day 6) was “decline” and the CD4 expression (CD4) was “up-regulation”.
In the case of “SESVNISTNVNRFHTFPYCEIAEVSCRSKVRIELDLQSPESS (MISC_FEATURE: synthetic) [control peptide, reference compound]”, the TCR-expression (TCR [4]; after 24 h) is reported as “no effect”.
